Measured values: ChEMBL document CHEMBL2177010, “Discovery and preclinical pharmacology of a selective ATP-competitive Akt inhibitor (GDC-0068) for the treatment of human tumors” (J Med Chem, 2012)
Calls of active or inactive are those of the source. The calls are words filed in the database; no cut-off is given here.

Columns and labels:
[1] = biological target: T1, RAC-alpha serine/threonine-protein kinase (Homo sapiens, UniProt P31749)
Description: Inhibition of Akt1 in human LNCAP cells assessed as phosphorylation of PRAS40 at Thr246 after 1.5 hrs

[2] = biological target: T1, RAC-alpha serine/threonine-protein kinase; remark: listed apart in the source
Description: Competitive inhibition of wild-type full-length amino-terminal polyhistidine-tagged human Akt1 expressed in recombinant baculovirus system using fluorescence labeled substrate after 60 mins by fluorescence polarization assay in presence of ATP

[3] = Competitive inhibition of PKA expressed in Escherichia coli assessed as fluorescence labeled peptide substrate phosphorylation after 60 mins in presence of ATP
[4] = biological target: RAC-gamma serine/threonine-protein kinase (Homo sapiens, UniProt Q9Y243)
Description: Competitive inhibition of wild-type full-length amino-terminal polyhistidine-tagged human Akt3 expressed in recombinant baculovirus system using fluorescence labeled Crosstide as substrate after 60 mins by fluorescence polarization assay in presence of ATP

[5] = Permeability across basolateral to apical side in human Caco2 cells; type: ADME, cell-based; conditions: Caco-2, read-out: permeability
[6] = Permeability across apical to basolateral side in human Caco2 cells; type: ADME, cell-based; conditions: Caco-2, read-out: permeability
[7] = Plasma concentration in nu/nu mouse xenografted with human PC3 cells at 100 mg/kg, po at 8 hrs by LC/MS/MS analysis; type: ADME, organism-based, PC-3; design: dose 100 mg/kg, route oral
PC-3 [8] = experiment: Antitumor activity against human PC3 xenografted in nu/nu mouse assessed as inhibition of tumor growth at 100 mg/kg, po qd after 11 days; type: functional; conditions: PC-3, 264 h, read-out: TGI
[9] = Plasma concentration in nu/nu mouse xenografted with human PC3 cells at 50 mg/kg, po at 1 hr by LC/MS/MS analysis; type: ADME, organism-based, PC-3; design: dose 50 mg/kg, route oral
Mus musculus [10] = experiment: Inhibition of Akt in nu/nu mouse xenografted with human PC3 cells assessed as decrease in tumor p-PRAS40 level at 100 mg/kg, po within 3 hrs by ELISA relative to total PRAS40; type: functional; conditions: PC-3, 3 h
[11] = Plasma concentration in nu/nu mouse xenografted with human PC3 cells at 12.5 mg/kg, po within 1 hr by LC/MS/MS analysis; type: ADME, organism-based, PC-3; design: dose 12.5 mg/kg, route oral
BT-474 = experiment: Cytotoxicity against human BT474M1 cells assessed as decrease in cell viability after 96 hrs by CellTitre-Glo assay; conditions: BT474M1, 96 h
PC-3 [12] = experiment: Antitumor activity against human PC3 xenografted in nu/nu mouse assessed as inhibition of tumor growth at 50 mg/kg, po bid after 11 days; type: functional; conditions: PC-3, 264 h, read-out: TGI
MCF7 = experiment: Cytotoxicity against human MCF7 cells overexpressing Her2 assessed as decrease in cell viability after 96 hrs by CellTitre-Glo assay; conditions: MCF7, 96 h
[13] = biological target: T1, RAC-alpha serine/threonine-protein kinase; conditions: BT474M1
Description: Inhibition of Akt1-mediated PRAS40 phosphorylation in human BT474M1 cells

PC-3 [14] = experiment: Cytotoxicity against human PC3 cells assessed as decrease in cell viability after 96 hrs by CellTitre-Glo assay; conditions: PC-3, 96 h
LNCaP = experiment: Cytotoxicity against human LNCAP cells assessed as reduction of resazurin to resorufin after 72 hrs
[15] = Solubility of the compound at pH 1.2 to 7.4; type: physicochemical; conditions: buffer
Mus musculus [16] = experiment: Toxicity in nu/nu mouse xenografted with human PC3 cells assessed as loss in body weight at 1 to 100 mg/kg, po qd relative to vehicle-treated control; type: organism-based, PC-3; design: dose 1-100 mg/kg, route oral; conditions: in vivo
[17] = Plasma concentration in nu/nu mouse xenografted with human PC3 cells at 50 mg/kg, po at 9 hrs by LC/MS/MS analysis; type: ADME, organism-based, PC-3; design: dose 50 mg/kg, route oral
PC-3 [18] = experiment: Antitumor activity against human PC3 xenografted in po dosed nu/nu mouse assessed as inhibition of tumor growth administered once daily measured after 11 days; type: functional; conditions: PC-3, po, 264 h, read-out: MED
[19] = Plasma concentration in nu/nu mouse xenografted with human PC3 cells at 50 mg/kg, po within 1 hr by LC/MS/MS analysis; type: ADME, organism-based, PC-3; design: dose 50 mg/kg, route oral
Mus musculus [20] = experiment: Inhibition of Akt in nu/nu mouse xenografted with human PC3 cells assessed as decrease in tumor p-PRAS40 level at 100 mg/kg, po at 8 hrs by ELISA relative to total PRAS40; type: functional; conditions: PC-3, 8 h
Mus musculus [21] = experiment: Toxicity in nu/nu mouse xenografted with human PC3 cells assessed as loss in body weight at 150 mg/kg, po qd after 8 days relative to vehicle-treated control; type: organism-based, PC-3; design: dose 150 mg/kg, route oral; conditions: in vivo, 192 h
PC-3 [22] = experiment: Antitumor activity against human PC3 xenografted in nu/nu mouse assessed as inhibition of tumor growth at 25 mg/kg, po qd after 11 days; type: functional; conditions: PC-3, 264 h, read-out: TGI

Sequence of RAC-gamma serine/threonine-protein kinase (Q9Y243 whole entry): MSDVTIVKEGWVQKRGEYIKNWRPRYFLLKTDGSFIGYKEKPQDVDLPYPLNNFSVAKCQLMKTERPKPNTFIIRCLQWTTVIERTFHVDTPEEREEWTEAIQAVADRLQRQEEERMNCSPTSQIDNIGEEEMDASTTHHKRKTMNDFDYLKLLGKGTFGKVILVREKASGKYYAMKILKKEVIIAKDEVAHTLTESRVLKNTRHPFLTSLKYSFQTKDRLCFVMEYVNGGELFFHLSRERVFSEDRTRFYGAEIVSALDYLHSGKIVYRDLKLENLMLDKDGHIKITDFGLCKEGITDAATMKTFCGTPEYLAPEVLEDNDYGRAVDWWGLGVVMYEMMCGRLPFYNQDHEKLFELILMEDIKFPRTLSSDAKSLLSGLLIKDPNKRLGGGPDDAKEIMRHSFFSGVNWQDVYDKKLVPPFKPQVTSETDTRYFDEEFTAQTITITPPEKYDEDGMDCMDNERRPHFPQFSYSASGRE
T1 sequence (P31749 whole entry): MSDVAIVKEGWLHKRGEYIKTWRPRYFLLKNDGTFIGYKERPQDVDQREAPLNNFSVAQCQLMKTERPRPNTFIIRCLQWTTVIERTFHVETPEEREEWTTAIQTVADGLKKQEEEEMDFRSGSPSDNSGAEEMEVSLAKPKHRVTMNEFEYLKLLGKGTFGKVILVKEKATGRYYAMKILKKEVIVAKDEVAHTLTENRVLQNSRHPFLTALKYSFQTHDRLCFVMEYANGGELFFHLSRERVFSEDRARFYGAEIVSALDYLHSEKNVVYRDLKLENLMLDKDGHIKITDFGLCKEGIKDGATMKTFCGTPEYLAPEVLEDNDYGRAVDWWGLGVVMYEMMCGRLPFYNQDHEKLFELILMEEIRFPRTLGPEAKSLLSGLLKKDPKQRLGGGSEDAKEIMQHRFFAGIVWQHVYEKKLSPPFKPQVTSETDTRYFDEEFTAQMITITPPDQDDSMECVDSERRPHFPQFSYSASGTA

Compound: C[C@@H]1C[C@@H](O)c2ncnc(N3CCN(C(=O)[C@H](CNCC4CCOCC4)c4ccc(Cl)cc4)CC3)c21
- IC50 [1]: 0.102 µM
- IC50 [2]: 0.003 µM
- IC50 [3]: 0.436 µM
- IC50 [4]: 0.004 µM

Compound: C[C@@H]1C[C@@H](O)c2ncnc(N3CCN(C(=O)[C@H](CN)c4ccc(C(F)(F)F)cc4)CC3)c21
- IC50 [1]: 0.603 µM
- IC50 [2]: 0.012 µM
- IC50 [3]: 0.418 µM
- IC50 [4]: 0.027 µM

Compound: C[C@@H]1C[C@@H](O)c2ncnc(N3CCN(C(=O)[C@H](CNC4CCOCC4)c4ccc(Cl)c(F)c4)CC3)c21
- IC50 [1]: 0.139 µM
- IC50 [2]: 0.012 µM
- IC50 [3]: 0.556 µM
- IC50 [4]: 0.012 µM

Compound: C[C@@H]1C[C@@H](O)c2ncnc(N3CCN(C(=O)[C@@H](c4ccc(Cl)cc4)[C@@H]4CCCN4)CC3)c21
- IC50 [1]: 0.241 µM
- IC50 [2]: 0.003 µM
- IC50 [3]: 0.271 µM
- IC50 [4]: 0.005 µM

Compound: C[C@@H]1C[C@@H](O)c2ncnc(N3CCN(C(=O)[C@H](CNC(C)(C)CO)c4ccc(C(F)(F)F)c(F)c4)CC3)c21
- IC50 [3]: 0.075 µM
- IC50 [4]: 0.002 µM

Compound: C[C@@H]1C[C@@H](O)c2ncnc(N3CCN(C(=O)[C@H](CNC(C)(C)CO)c4ccc(Cl)cc4)CC3)c21
- IC50 [1]: 0.075 µM
- IC50 [2]: 0.002 µM
- IC50 [3]: 0.293 µM
- IC50 [4]: 0.003 µM

Compound: C[C@@H]1C[C@@H](O)c2ncnc(N3CCN(C(=O)[C@H](CN4CCC(F)CC4)c4ccc(Cl)cc4)CC3)c21
- IC50 [1]: 0.196 µM
- IC50 [2]: 0.006 µM
- IC50 [3]: 1.2 µM

Compound: COCCNC[C@@H](C(=O)N1CCN(c2ncnc3c2[C@H](C)C[C@H]3O)CC1)c1ccc(Cl)cc1
- IC50 [1]: 0.384 µM
- IC50 [2]: 0.008 µM
- IC50 [3]: 1 µM
- IC50 [4]: 0.013 µM

Compound: CC(C)NC[C@@H](C(=O)N1CCN(c2ncnc3c2[C@H](C)C[C@@H]3O)CC1)c1ccc(Cl)cc1
- IC50 [3]: 1.55 µM

Compound: CC(C)NC[C@@H](C(=O)N1CCN(c2ncnc3c2[C@H](CO)CC3)CC1)c1ccc(Cl)cc1
- IC50 [1]: 0.846 µM
- IC50 [2]: 0.081 µM
- IC50 [3]: 0.957 µM
- IC50 [4]: 0.083 µM

Compound: C[C@@H]1C[C@@H](O)c2ncnc(N3CCN(C(=O)[C@H](CNCC4CC4)c4ccc(Cl)cc4)CC3)c21
- IC50 [3]: 0.777 µM

Compound: CC(C)N(C)C[C@@H](C(=O)N1CCN(c2ncnc3c2[C@H](C)C[C@H]3O)CC1)c1ccc(Cl)cc1
- IC50 [1]: 0.139 µM
- IC50 [2]: 0.018 µM
- IC50 [3]: 2.14 µM

Compound: CC(C)NC[C@@H](C(=O)N1CCN(c2ncnc3c2[C@H](CF)CC3)CC1)c1ccc(Cl)cc1
- IC50 [1]: 0.123 µM
- IC50 [2]: 0.003 µM
- IC50 [3]: 0.035 µM
- IC50 [4]: 0.005 µM

Compound: C[C@@H]1C[C@@H](O)c2ncnc(N3CCN(C(=O)[C@H](CNC4CCCCC4)c4ccc(Cl)cc4)CC3)c21
- IC50 [1]: 0.367 µM
- IC50 [2]: 0.009 µM
- IC50 [3]: 1.28 µM
- IC50 [4]: 0.007 µM

Compound: C[C@@H]1C[C@@H](O)c2ncnc(N3CCN(C(=O)[C@H](CN)c4ccc(Cl)cc4)CC3)c21
- IC50 [1]: 1.45 µM
- IC50 [2]: 0.024 µM
- IC50 [3]: 0.7 µM
- IC50 [4]: 0.045 µM

Compound: CC(C)NC[C@@H](C(=O)N1CCN(c2ncnc3c2[C@H](C)CC3)CC1)c1ccc(Cl)cc1
- IC50 [1]: 0.287 µM
- IC50 [2]: 0.006 µM
- IC50 [3]: 0.033 µM
- Papp B→A [5]: 19.2 ×10⁻⁶ cm/s
- Papp A→B [6]: 13.2 ×10⁻⁶ cm/s
- IC50 [4]: 0.005 µM

Compound: CO[C@H]1CC[C@H](NC[C@@H](C(=O)N2CCN(c3ncnc4c3[C@H](C)C[C@H]4O)CC2)c2ccc(Cl)cc2)CC1
- IC50 [1]: 0.132 µM
- IC50 [2]: 0.005 µM
- IC50 [3]: 0.662 µM
- IC50 [4]: 0.004 µM

Compound: C[C@@H]1C[C@@H](O)c2ncnc(N3CCN(C(=O)[C@H](CNC4CCOCC4)c4ccc(Cl)cc4)CC3)c21
- IC50 [3]: 0.654 µM

Compound: CC(C)NC[C@@H](C(=O)N1CCN(c2ncnc3c2[C@H](C)C[C@H]3O)CC1)c1ccc(Cl)cc1 [IPATASERTIB]
- concentration at 8 h [7]: > 2600 nM
- inhibition in vivo at 100 mg/kg (PC-3 [8]): 79%
- concentration at 1 h [9]: 7400 nM
- inhibition in vivo at 100 mg/kg (Mus musculus [10]): > 95%
- concentration at 1 h [11]: ≥ 200 nM
- IC50 (BT-474): 1 µM
- inhibition in vivo at 50 mg/kg (PC-3 [12]): 81%
- IC50 (MCF7): 1 µM
- IC50 [3]: 3.1 µM
- inhibition [13]: Active
- IC50 (PC-3 [14]): 1 µM
- IC50 (LNCaP): 0.095 µM
- solubility [15]: > 10000 µg/mL
- Activity (Mus musculus [16]): < 10%
- concentration at 9 h [17]: 500 nM
- minimal effective dose (PC-3 [18]): 25 mg/kg
- concentration at 1 h [19]: ≥ 200 nM
- inhibition in vivo at 100 mg/kg (Mus musculus [20]): 87%
- Activity (Mus musculus [21]): >= 20%
- inhibition in vivo at 25 mg/kg (PC-3 [22]): 49%

Compound: C[C@@H]1C[C@@H](O)c2ncnc(N3CCN(C(=O)[C@@H](c4ccc(Cl)cc4)[C@@H]4COCCN4)CC3)c21
- IC50 [1]: 0.855 µM
- IC50 [2]: 0.012 µM
- IC50 [3]: 1.36 µM
- IC50 [4]: 0.026 µM

Compound: C[C@@H]1C[C@@H](O)c2ncnc(N3CCN(C(=O)[C@@H](c4ccc(Cl)cc4)[C@@H]4CCCCN4)CC3)c21
- IC50 [1]: 0.53 µM
- IC50 [2]: 0.009 µM
- IC50 [3]: 1.59 µM
- IC50 [4]: 0.012 µM

Compound: C[C@@H]1C[C@@H](O)c2ncnc(N3CCN(C(=O)[C@H](CNCC4CC4)c4ccc(C(F)(F)F)c(F)c4)CC3)c21
- IC50 [3]: 0.103 µM
- IC50 [4]: 0.002 µM

Compound: C=C[C@@H]1CCc2ncnc(N3CCN(C(=O)[C@H](CNC(C)C)c4ccc(Cl)cc4)CC3)c21
- IC50 [1]: 0.176 µM
- IC50 [2]: 0.002 µM
- IC50 [3]: 0.01 µM
- IC50 [4]: 0.001 µM

Compound: CC(C)NC[C@@H](C(=O)N1CCN(c2ncnc3c2[C@H](C)CC3(F)F)CC1)c1ccc(Cl)cc1
- IC50 [1]: 8.55 µM
- IC50 [2]: 1.17 µM
- IC50 [3]: > 10 µM

Compound: CC(C)NC[C@@H](C(=O)N1CCN(c2ncnc3c2[C@H](C)C[C@H]3O)CC1)c1ccc(Cl)c(F)c1
- IC50 [1]: 0.234 µM
- IC50 [2]: 0.003 µM
- IC50 [3]: 0.49 µM
- IC50 [4]: 0.007 µM

Compound: C[C@@H]1C[C@@H](O)c2ncnc(N3CCN(C(=O)[C@H](CNCCF)c4ccc(Cl)cc4)CC3)c21
- IC50 [1]: 1.3 µM
- IC50 [2]: 0.012 µM
- IC50 [3]: 1.31 µM
- IC50 [4]: 0.021 µM

Compound: CC(C)NC[C@@H](C(=O)N1CCN(c2ncnc3c2[C@H](C)C[C@H]3F)CC1)c1ccc(Cl)cc1
- IC50 [3]: 0.017 µM
- IC50 [4]: 0.01 µM

Compound: CC(C)NC[C@@H](C(=O)N1CCN(c2ncnc3c2C(C)(C)CC3)CC1)c1ccc(Cl)cc1
- IC50 [3]: > 2 µM
- IC50 [4]: > 2 µM

Compound: C[C@@H]1C[C@@H](O)c2ncnc(N3CCN(C(=O)[C@H](CNC(C)(C)C)c4ccc(C(F)(F)F)c(F)c4)CC3)c21
- IC50 [3]: 0.153 µM

Compound: C[C@@H]1C[C@@H](O)c2ncnc(N3CCN(C(=O)[C@H](CNCC(F)(F)F)c4ccc(Cl)cc4)CC3)c21
- IC50 [2]: 0.902 µM
- IC50 [3]: > 10 µM
- IC50 [4]: 0.798 µM

Compound: CC(C)NC[C@@H](C(=O)N1CCN(c2ncnc3c2[C@H](C)C[C@@H]3F)CC1)c1ccc(Cl)cc1
- IC50 [3]: 0.541 µM
- IC50 [4]: 0.023 µM
